The target in assay [1] is Serine/threonine-protein kinase 26 (Homo sapiens, UniProt Q9P289).
Assay [2] has as its target T1, Discoidin domain-containing receptor 2 (Homo sapiens, UniProt Q16832).
T1 sequence (Q16832 whole entry): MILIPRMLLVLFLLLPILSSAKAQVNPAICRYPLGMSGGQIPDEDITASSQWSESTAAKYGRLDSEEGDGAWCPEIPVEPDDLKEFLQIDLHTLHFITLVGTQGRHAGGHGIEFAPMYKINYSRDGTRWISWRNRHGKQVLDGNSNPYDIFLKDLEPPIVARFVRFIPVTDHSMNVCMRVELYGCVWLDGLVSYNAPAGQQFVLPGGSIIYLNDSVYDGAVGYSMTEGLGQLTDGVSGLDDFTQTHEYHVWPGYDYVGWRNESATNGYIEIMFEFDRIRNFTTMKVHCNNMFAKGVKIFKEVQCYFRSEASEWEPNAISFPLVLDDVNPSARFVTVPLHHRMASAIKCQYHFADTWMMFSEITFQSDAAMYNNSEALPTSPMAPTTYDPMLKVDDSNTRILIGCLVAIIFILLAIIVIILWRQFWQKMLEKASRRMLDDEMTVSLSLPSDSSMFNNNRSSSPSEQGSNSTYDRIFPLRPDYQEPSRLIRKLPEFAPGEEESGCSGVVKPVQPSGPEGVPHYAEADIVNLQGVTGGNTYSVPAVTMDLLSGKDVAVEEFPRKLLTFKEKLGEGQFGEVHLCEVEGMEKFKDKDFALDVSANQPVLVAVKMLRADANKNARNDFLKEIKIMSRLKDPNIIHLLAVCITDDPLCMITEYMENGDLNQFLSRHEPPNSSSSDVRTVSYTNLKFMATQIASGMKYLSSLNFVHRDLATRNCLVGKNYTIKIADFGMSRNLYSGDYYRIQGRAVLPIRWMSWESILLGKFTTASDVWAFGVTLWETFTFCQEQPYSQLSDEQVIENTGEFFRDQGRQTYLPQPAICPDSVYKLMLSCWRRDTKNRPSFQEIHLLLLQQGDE

The target in assay [3] is Ribosomal protein S6 kinase alpha-6 (Homo sapiens, UniProt Q9UK32).
Assay [4] deals with T2, EKC/KEOPS complex subunit TP53RK (Homo sapiens, UniProt Q96S44).
T2 sequence (Q96S44 whole entry): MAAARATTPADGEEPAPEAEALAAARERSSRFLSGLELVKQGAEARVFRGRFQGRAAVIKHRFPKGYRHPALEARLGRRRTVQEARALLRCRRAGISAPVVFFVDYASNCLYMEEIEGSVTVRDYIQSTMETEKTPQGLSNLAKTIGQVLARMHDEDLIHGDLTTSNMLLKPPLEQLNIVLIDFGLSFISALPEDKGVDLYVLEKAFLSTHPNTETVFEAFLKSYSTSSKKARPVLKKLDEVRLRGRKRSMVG

Assay [5] concerns the target T3, Dual specificity mitogen-activated protein kinase kinase 6 (Homo sapiens, UniProt P52564).
T3 sequence (P52564 whole entry): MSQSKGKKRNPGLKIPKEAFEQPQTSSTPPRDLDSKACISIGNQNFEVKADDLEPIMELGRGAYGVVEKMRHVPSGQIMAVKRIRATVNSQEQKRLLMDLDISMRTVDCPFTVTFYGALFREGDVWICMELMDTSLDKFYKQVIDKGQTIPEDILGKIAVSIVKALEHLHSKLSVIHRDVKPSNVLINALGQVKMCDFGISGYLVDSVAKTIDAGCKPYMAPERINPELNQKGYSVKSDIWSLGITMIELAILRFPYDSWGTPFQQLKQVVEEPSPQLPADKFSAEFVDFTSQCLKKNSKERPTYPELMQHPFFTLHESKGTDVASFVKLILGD

Assay [6] has as its target Tyrosine-protein kinase Lyn (Homo sapiens, UniProt P07948).
Assay [7] addresses Mitogen-activated protein kinase kinase kinase kinase 1 (Homo sapiens, UniProt Q92918).
For assay [8], the target named is Calcium/calmodulin-dependent protein kinase type II subunit gamma (Homo sapiens, UniProt Q13555).
The target in assay [9] is T4, Mitogen-activated protein kinase kinase kinase kinase 2 (Homo sapiens, UniProt Q12851).
T4 sequence (Q12851 whole entry): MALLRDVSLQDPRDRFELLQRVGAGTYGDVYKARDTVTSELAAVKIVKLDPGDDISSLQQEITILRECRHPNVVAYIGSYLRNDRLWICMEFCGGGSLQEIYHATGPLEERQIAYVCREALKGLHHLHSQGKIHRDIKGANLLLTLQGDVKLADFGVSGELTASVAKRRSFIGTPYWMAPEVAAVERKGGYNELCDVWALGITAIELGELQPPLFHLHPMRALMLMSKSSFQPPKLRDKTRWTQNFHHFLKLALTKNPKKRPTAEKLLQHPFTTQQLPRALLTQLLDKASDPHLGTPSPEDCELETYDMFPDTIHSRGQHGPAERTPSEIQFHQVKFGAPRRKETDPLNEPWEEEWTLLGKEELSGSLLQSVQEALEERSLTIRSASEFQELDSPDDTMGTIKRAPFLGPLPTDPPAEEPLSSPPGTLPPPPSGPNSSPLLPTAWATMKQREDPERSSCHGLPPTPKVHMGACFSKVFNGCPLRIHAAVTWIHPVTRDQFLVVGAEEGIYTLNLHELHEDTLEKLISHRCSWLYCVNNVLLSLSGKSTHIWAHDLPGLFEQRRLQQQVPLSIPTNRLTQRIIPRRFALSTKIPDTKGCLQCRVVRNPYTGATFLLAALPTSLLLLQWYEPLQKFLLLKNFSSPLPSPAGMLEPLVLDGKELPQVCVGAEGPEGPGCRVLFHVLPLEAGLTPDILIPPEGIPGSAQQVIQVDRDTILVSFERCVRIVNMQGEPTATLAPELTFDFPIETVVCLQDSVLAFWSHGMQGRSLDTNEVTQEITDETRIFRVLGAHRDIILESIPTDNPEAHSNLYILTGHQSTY

The values below come from ChEMBL document CHEMBL3991601, “The target landscape of clinical kinase drugs” (Science, 2017).

The source made the active and inactive calls. Cut-off read from the data, not from the text of the source, for most assays here: actives have a measured Kd and inactives only a lower limit.
Note: in the data inactive means no Kd found up to 30 µM.

Sequence of Serine/threonine-protein kinase 26 (Q9P289 whole entry, the tested form may be a part): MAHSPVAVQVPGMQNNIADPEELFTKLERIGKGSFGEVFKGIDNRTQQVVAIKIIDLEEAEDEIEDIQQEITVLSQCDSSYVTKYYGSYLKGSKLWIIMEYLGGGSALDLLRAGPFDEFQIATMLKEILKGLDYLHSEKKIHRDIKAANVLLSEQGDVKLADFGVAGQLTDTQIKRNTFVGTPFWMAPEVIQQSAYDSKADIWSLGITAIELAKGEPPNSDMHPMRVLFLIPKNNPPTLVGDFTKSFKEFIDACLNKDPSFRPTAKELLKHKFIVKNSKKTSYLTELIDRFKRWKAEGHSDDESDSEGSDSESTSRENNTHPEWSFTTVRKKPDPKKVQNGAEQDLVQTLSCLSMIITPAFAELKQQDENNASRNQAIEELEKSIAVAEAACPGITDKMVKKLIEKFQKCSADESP
Sequence of Ribosomal protein S6 kinase alpha-6 (Q9UK32 whole entry): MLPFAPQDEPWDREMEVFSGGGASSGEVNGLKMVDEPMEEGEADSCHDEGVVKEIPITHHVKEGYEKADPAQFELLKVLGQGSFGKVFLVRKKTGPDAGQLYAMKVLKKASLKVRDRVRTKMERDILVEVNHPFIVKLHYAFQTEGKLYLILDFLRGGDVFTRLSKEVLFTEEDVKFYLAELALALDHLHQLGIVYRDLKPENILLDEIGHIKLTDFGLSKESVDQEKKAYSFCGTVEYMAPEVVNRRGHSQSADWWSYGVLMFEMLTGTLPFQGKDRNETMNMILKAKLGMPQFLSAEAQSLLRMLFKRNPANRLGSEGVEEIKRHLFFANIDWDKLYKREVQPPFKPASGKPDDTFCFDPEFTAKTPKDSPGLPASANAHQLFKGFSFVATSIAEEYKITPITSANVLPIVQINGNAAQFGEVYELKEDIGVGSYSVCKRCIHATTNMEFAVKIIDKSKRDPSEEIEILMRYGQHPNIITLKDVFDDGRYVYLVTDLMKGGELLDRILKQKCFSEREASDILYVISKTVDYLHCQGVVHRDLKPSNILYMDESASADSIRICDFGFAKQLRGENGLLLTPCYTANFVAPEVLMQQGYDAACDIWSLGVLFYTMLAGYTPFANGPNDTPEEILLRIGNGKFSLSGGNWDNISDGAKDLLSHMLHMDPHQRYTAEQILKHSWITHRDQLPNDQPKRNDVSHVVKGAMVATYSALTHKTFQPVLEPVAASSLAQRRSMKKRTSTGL
Sequence of Mitogen-activated protein kinase kinase kinase kinase 1 (Q92918 whole entry): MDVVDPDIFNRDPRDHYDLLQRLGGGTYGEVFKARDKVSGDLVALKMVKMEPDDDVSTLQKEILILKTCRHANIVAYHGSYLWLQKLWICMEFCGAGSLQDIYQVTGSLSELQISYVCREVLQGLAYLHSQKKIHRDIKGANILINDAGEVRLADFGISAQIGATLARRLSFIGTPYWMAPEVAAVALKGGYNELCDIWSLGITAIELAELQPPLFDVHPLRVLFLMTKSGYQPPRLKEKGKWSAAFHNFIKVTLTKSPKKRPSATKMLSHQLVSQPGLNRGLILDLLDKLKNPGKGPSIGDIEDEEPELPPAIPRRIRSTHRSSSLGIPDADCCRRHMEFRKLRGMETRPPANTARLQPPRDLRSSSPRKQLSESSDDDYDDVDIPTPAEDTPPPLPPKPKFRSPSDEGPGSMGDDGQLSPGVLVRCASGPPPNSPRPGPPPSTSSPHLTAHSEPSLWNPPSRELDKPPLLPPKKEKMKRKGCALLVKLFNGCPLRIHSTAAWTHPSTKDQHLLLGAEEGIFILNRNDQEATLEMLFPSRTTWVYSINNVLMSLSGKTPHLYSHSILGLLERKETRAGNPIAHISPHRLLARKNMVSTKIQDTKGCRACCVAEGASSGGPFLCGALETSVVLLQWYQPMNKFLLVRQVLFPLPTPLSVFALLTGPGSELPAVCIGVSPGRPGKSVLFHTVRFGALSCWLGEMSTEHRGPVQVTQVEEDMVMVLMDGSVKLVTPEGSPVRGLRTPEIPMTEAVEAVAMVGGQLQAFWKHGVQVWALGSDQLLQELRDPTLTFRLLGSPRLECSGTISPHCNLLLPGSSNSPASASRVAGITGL
Sequence of Calcium/calmodulin-dependent protein kinase type II subunit gamma (Q13555 whole entry): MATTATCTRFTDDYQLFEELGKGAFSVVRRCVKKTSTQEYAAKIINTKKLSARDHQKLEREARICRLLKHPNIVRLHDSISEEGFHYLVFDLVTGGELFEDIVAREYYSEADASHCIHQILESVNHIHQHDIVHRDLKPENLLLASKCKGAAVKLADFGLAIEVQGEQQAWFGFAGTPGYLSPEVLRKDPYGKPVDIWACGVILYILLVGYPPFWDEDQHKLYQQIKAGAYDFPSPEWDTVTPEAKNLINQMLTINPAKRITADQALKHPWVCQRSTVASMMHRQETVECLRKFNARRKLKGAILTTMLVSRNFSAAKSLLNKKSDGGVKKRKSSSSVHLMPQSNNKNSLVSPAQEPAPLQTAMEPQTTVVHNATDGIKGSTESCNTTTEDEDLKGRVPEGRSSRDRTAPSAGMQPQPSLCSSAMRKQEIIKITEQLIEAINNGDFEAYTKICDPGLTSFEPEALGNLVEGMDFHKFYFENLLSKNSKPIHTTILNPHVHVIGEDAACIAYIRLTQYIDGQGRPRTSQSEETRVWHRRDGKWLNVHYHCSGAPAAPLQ
Sequence of Tyrosine-protein kinase Lyn (P07948 whole entry): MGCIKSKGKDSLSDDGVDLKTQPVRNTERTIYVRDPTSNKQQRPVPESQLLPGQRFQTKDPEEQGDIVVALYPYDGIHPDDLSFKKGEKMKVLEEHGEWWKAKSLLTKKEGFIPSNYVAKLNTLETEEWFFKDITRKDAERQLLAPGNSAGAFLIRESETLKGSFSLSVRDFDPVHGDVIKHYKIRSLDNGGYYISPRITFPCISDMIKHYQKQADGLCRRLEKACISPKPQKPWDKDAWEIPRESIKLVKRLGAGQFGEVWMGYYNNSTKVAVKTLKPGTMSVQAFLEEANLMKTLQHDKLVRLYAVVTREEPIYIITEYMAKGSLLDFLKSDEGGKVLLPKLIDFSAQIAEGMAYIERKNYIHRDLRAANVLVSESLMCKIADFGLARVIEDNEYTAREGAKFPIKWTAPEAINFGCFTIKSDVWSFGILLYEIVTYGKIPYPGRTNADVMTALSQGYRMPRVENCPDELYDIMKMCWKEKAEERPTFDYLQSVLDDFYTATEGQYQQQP

By Kd is commonly meant the constant that tells how readily two partners part at equilibrium. Regarding `CCN(CCCOc1ccc2c(Nc3cc(CC(=O)Nc4cccc(F)c4)n[nH]3)ncnc2c1)CCOP(=O)(O)O` [BARASERTIB], the Kd in assay [1] was > 30 µM (inactive); in [2] it was > 30 µM (inactive); in assay [3], > 30 µM (inactive); in assay [4] it was > 30 µM (inactive); in assay [5], > 30 µM (inactive); in [6] it was 3.63 µM (active). Moreover, the Kd in assay [7] and in assay [8] was > 30 µM (inactive) throughout.
`C=CCn1c(=O)c2cnc(Nc3ccc(N4CCN(C)CC4)cc3)nc2n1-c1cccc(C(C)(C)O)n1` [ADAVOSERTIB]: the Kd in [1], in assay [2], in assay [3], in assay [4], in [5] and in [6] was > 30 µM (inactive) throughout. In addition, the Kd in assay [7] and in assay [8] was > 30 µM (inactive) in each case.
For the compound `COc1cc2c(N3CCN(C(=O)Nc4ccc(OC(C)C)cc4)CC3)ncnc2cc1OCCCN1CCCCC1` [TANDUTINIB], the Kd in assay [4] was > 30 µM (inactive).
On to `COc1cc2c(Oc3ccc4[nH]c(C)cc4c3F)ncnc2cc1OCCCN1CCCC1` [CEDIRANIB], for which, in [4], the Kd is > 30 µM (inactive).
On to `CN1CCN(c2nc(C3=C(c4c[nH]c5ccccc45)C(=O)NC3=O)c3ccccc3n2)CC1` [SOTRASTAURIN], for which the Kd in assay [9], in [1], in assay [2], in assay [4], in assay [5] and in assay [6] was > 30 µM (inactive) throughout. Besides, the Kd in assay [7] and in assay [8] was > 30 µM (inactive) throughout.
In the case of `Cn1cnc2c(F)c(Nc3ccc(Br)cc3Cl)c(C(=O)NOCCO)cc21` [SELUMETINIB], in [4], the Kd is > 30 µM (inactive).
In the case of `CN(C)C/C=C/C(=O)Nc1cc2c(Nc3ccc(F)c(Cl)c3)ncnc2cc1O[C@H]1CCOC1` [AFATINIB], the Kd in assay [4] is > 30 µM (inactive).
Regarding `CCOc1ccn(-c2ccc(F)cc2)c(=O)c1C(=O)Nc1ccc(Oc2ccnc(N)c2Cl)c(F)c1` [BMS-777607], the Kd in assay [1] was > 30 µM (inactive); in assay [2] it was 0.065 µM (active); in assay [3] it was > 30 µM (inactive); in assay [4], > 30 µM (inactive); in assay [5], > 30 µM (inactive); in assay [6], > 30 µM (inactive). The Kd in assay [7] is > 30 µM (inactive).
For `Cc1cc(-c2cc(OC(=O)c3ccccc3)ccc2Cl)cc2nnc(Nc3ccc(OCCN4CCCC4)cc3)nc12` [TG100-801], the Kd in assay [9], in assay [1], in [2], in assay [3], in assay [4] and in assay [5] was > 30 µM (inactive) in each case. Also, the Kd in assay [6] and in assay [8] was > 30 µM (inactive) throughout.
`CN(c1ncccc1CNc1nc(Nc2ccc3c(c2)CC(=O)N3)ncc1C(F)(F)F)S(C)(=O)=O` [PF-00562271]: the equilibrium dissociation constant (Kd) was 0.012 µM in [1]; > 30 µM (inactive) in assay [2]; > 30 µM (inactive) in assay [3]; > 30 µM (inactive) in assay [4]; 3.98 µM (active) in [7].
With `CC(C)CC(=O)Nc1[nH]nc2c1CN(C(=O)C1CCN(C)CC1)C2(C)C` [PHA-793887], the Kd in assay [9] was > 30 µM (inactive); in [1], 0.175 µM; in assay [2], > 30 µM (inactive); in assay [3] it was > 30 µM (inactive); in [4] it was > 30 µM (inactive); in assay [6] it was > 30 µM (inactive). Besides, the Kd in assay [7] and in assay [8] was > 30 µM (inactive) each time.
On to `CC1(C)CNc2cc(NC(=O)c3cccnc3NCc3ccncc3)ccc21` [MOTESANIB], for which, in assay [4], the Kd is > 30 µM (inactive).
Same read-out and setting: the result for `C[C@@]1(C(=O)Nc2ccc(F)nc2)CCCN1c1nc(Nc2cc(C3CC3)n[nH]2)c2cccn2n1` [BMS-754807] reads > 30 µM (inactive).
Consider `O=S(=O)(c1cccc2cnccc12)N1CCCNCC1` [FASUDIL], for which the Kd in assay [1], in assay [2], in assay [3], in assay [4], in assay [5] and in assay [6] was > 30 µM (inactive) throughout. Moreover, the Kd in assay [7] and in assay [8] was > 30 µM (inactive) throughout.
As to `N#CCNC(=O)c1ccc(-c2ccnc(Nc3ccc(N4CCOCC4)cc3)n2)cc1` [MOMELOTINIB], the Kd in assay [9], in [1], in assay [2], in [3], in assay [4] and in assay [5] was > 30 µM (inactive) each time. Further, the Kd in [7] was > 30 µM (inactive).
For `CCc1nc(C(N)=O)c(Nc2ccc(N3CCC(N4CCN(C)CC4)CC3)c(OC)c2)nc1NC1CCOCC1` [GILTERITINIB], the Kd was 0.244 µM (active) in assay [9]; 1.14 µM (active) in [1]; > 30 µM (inactive) in [2]; > 30 µM (inactive) in assay [3]; 2.72 µM (active) in assay [4]; 1.89 µM (active) in [5]. Further, the Kd in assay [6] is > 30 µM (inactive); in assay [8], 0.169 µM (active).
On to `C[C@]1(O)C[C@@H](c2nc(-c3ccc4ccc(-c5ccccc5)nc4c3)c3c(N)nccn32)C1` [LINSITINIB], for which the Kd in [9] is 0.067 µM (active); in [1], > 30 µM (inactive); in [2], > 30 µM (inactive); in assay [3], > 30 µM (inactive); in assay [4] it was > 30 µM (inactive); in assay [5], > 30 µM (inactive). In addition, the Kd in [7] is > 30 µM (inactive).
Regarding `Cn1c(=O)n(-c2ccc(C(C)(C)C#N)cc2)c2c3cc(-c4cnc5ccccc5c4)ccc3ncc21` [DACTOLISIB], the Kd in assay [1], in assay [3], in assay [4], in assay [5], in assay [6] and in [7] was > 30 µM (inactive) throughout. Also, the Kd in assay [8] is > 30 µM (inactive).
